Key:
[1] = test system: TNFα production in human peripheral monocytes; test: Inhibitory effect on TNFα production in LPS-stimulated human peripheral monocytes; format: cell-based; conditions: Monocyte, LPS 10 μg/ml, 20 hours
Description: (§1) (1) Peripheral blood was collected from healthy human volunteers in the presence of heparin. After mixing it with an equal volume of phosphate-buffered saline (PBS, Nissui Pharmaceutical), the mixture was layered onto Ficoll Paque medium (Pharmacia) at the rate of 2:1 and centrifuged at 520×g at 25° C. for 20 minutes. After centrifugation, the monocyte layer was removed and suspended in RPMI 1640 (Nissui Pharmaceutical) containing 10% fetal calf serum (FCS). The monocytes were washed once with the same medium, placed in a plastic Petri dish, pre-treated with human plasma and incubated for 2 hours in the presence of 5% CO2 to cause them to adhere to the dish. After incubation, the Petri dish was washed twice with PBS to remove the non-adherent cells. Thereafter, PBS containing 5% FCS and 0.2% EDTA was added to the Petri dish and the dish was allowed to stand undisturbed for 15 minutes at 4° C. The monocytes were recovered from the dish by pipetting. The cells were finally suspended in RPMI 1640 at a concentration of 1.25×10^5 cells/ml. (2) Culture of Human Monocytes
(§2) A 40 μl solution of the test compound and 40 μl of lipopolysaccharide (LPS; E. coli, 0.26:B6, Difco), adjusted to a final concentration of 10 μg/ml, were added to 320 μl of cell suspension. The resulting mixture was then cultured for 20 hours in the presence of 5% CO2 and the supernatant was removed at the end of cultivation to assay IL-1β and TNFα. The test compound was dissolved in dimethyl sulfoxide and diluted by a factor of 100 with FCS to reach 10 times the final concentration (the final concentrations of dimethyl sulfoxide and FCS were 0.1% and 10%, respectively).
(§3) The amount of IL-1β was measured with a commercially available ELISA kit (Cayman), after diluting the supernatant medium by a factor of 15 or 30 with the ELISA buffer. The amount of TNFα was similarly measured by a ELISA kit (Genzyme) after diluting the supernatant by a factor of 2.
(§4) The IC50 was calculated from the regression line determined by the inhibition rates and the concentrations of the test compound.

[2] = test system: yeast-inflamed pain in rats; test: Analgesic effect on yeast-inflamed pain in rats (Randall-Selitto method); format: in vivo, Wistar-Imamichi rats; conditions: Rattus norvegicus, oral, pain threshold 0.5, 1 and 2 hours after administration, read-out: Efficacy Rate (No. of animals in which drug was effective/No. of animals used in test) (converted)
Description: The compound was suspended in 0.5%tragacanth and administered orally at a volume of 5 ml/kg. The control group was administered with 0.5% tragacanth only as a vehicle.
Wistar-Imamichi rats (males, 5 week old, body weights: 80-100 g) were used in this test.
The test was conducted in accordance with the method of Winter and Flataker [J. Pharmacol. Exp. Ther. 150, 165-171, (1965)], which is a modification of the original method of Randall and Selitto [Arch. Int. Pharmacodyn. Ther. 111, 405-419, (1957)]. The rats were fasted for 16 hours prior to use. Inflammation was induced by subcutaneous injection of 0.1 ml of a suspension of 20% beer yeast (Sigma) into the right hind footpad of the animal. After 4.5 hours, increasing pressure was applied to the inflamed footpad at a constant speed using an Analgesy meter (Trade mark) (Ugo-Basile Co.).
First the average of pain threshold values at each time point (0.5, 1, and 2 hr) was calculated in a control group. If a pain threshold value exceeded 2 times the control average value at the same time point even once in the drug-treated groups, then the animal was considered to indicate efficacy. Efficacy rates of the drug were estimated by the evaluation method of Blake [J. Pharm. Pharm. 19, 367-373, (1967)].

[3] = test system: Carrageenan-induced Paw Edema in rats; test: Carrageenan-induced paw edema test; format: in vivo, Wistar-Imamichi rats; conditions: Rattus norvegicus, oral, 3 hours after carrageenan, read-out: Inhibition Rate (%)
Description: The same test compounds were subjected to the test as those in the Randall-Selitto test of Experiment 3. Wistar-Imamichi rats (males, 6 week old, body weights: 110-120 g) were used in this test.
The method of Winter, et al. [Proc. Soc. Exp. Biol. Med. 111, 544-547, (1962)] was slightly modified to perform the test [Sankyo Annual Research Report 39, 77-111, (1989)]. The rats were fasted for 16 hours prior to use. Inflammatory edema was induced by the subcutaneous injection of 0.05 ml of a 1% carrageenan (Viscarin 402) solution into the right hind paw of the animal. The test compounds were administered orally 30 minutes before injection of carrageenan. The volume of the right hind foot was measured with a Plethysmometer (Trade mark) (Ugo-Basile Co.) just before administration of the test compound and 3 hours after injection of carrageenan to determine the edema intensity [(right foot volume after 3 hours/right foot volume before injection)-1].

[4] = test system: scald-induced Pain in rats; test: Scald-induced pain test; format: in vivo, Wistar-Imamichi rats; conditions: oral; pain response time, mean of 1 and 2 hours after dosing
Description: The test was conducted in accordance with the method of Iizuka and Tanaka [Jpn. J. Pharmacol. 70, 697, (1967)]. The test compound was administered in the same manner as in Experiment 3. Male Wistar-Imamichi rats (4-5 week old, body weights: approximately 100 g) were used after fasting for 16 hours. The right hind foot of the animal was immersed in hot water at 57° C. for 6 seconds to induce scald under ether-anesthesia. Two hours later, the scald foot of the rat was irritated by immersing in hot water at 40° C. for 5 seconds, and the animal was returned to the cage. […] Lifting up the scalded foot or licking it without coming in contact with the metal cage were considered to be pain responses. Pain response time was determined as the total time of the pain response during the 30-second observation period. […] Pain response time was again measured 1 and 2 hours after dosing and the mean value was determined. Using the mean values, inhibition rates were calculated relative to the control group. ID50 was calculated from the regression line determined by the inhibition rates and the doses.

yeast-induced fever = test: Antipyretic effect on yeast-induced fever; format: in vivo, Wistar-Imamichi rats; conditions: Dose: 0.4 mg/kg, oral; mean of 1 and 2 hours after dosing
Description: The method of Roszkowski et al. [J. Pharmacol. Exp. Ther. 179, 114, (1971)] was slightly modified to perform the test. The test compound was administered in the same manner as in Experiment 3. Male Wistar-Imamichi rats (6 week old, body weights: approximately 120 g) were used in the test. Yeast (Brewer's yeast, Sigma) was suspended in physiological saline to a concentration of 25%, finely crushed in an agate mortar, and injected subcutaneously into the backs of the rats under ether-anesthesia at a volume of 2 ml/rat. The rats were fasted after the injection of yeast. On the following day (19 hours after the yeast injection), a catheter-type thermistor thermometer (Japan Koden, MGA III) was inserted approximately 5 cm into the rectum to measure the temperature of the animals. […] Rectal temperatures were measured 1 and 2 hours after administration of the test compound, and fever temperature was calculated by subtracting the normal temperature of healthy animals measured simultaneously. Inhibition rate of the group treated with the compound relative to the control group was calculated by using the mean value at 1 and 2 hours after dosing.

gastric mucosa = test: Irritative effect on gastric mucosa; format: in vivo, Wistar rats; conditions: oral; dose producing 50% incidence of gastric ulcers, 3.5 hours after dosing
Description: Experiments were performed according to the method described by Jahn and Adrian [Arzneim.-Forsch. 19, 36, (1969)]. Male Wistar rats weighing approximately 120 g were fasted for 16 hours before the experiment. The drugs were administered orally to rats as described in Experiment 3. Three and the half hours after dosing, the animals were killed under ether-anesthesia and the stomachs were placed into 1% of formalin. The stomach was opened by cutting along the greater curvature and the number and length of lesions were counted under a microscope (6.3×10). The ulcerogenicity in each animal was assessed according to Hitchens et. al. [Pharmacologist 9, 242, (1967)]. Incidence was determined as the rate of rats with 4 or more ulcers of more than 0.5 mm length, and UD50's (doses producing 50% incidence) were calculated from the incidence and the dose by probit (=probability unit) method.

[5] = test system: IL-1β production in human peripheral monocytes; test: Inhibitory effect on IL-1β production in LPS-stimulated human peripheral monocytes; format: cell-based; conditions: Monocyte, LPS 10 μg/ml, 20 hours
Description: as §1, §2, §3, §4

[6] = test system: LTB4 production from human peripheral monocytes; test: Inhibitory effect on LTB4 production from human peripheral monocytes; format: cell-based; conditions: Monocyte, LTB4 in culture supernatant, ELISA
Description: The isolation of monocytes was carried out as described in Experiment 2-(1).
The cell culture was carried out as described in Experiment 2-(2).
The supernatant of the culture medium after incubation was subjected to the ELISA assay (Cayman). IC50 values were calculated by the least square method from the regression line determined by the inhibition rates and the doses.

SMILES | inhibition at 10 µM [1] [%] | responders at 12.5 mg/kg [2] [%] | inhibition in vivo at 50 mg/kg [3] [%] | further results
CS(=O)(=O)c1ccc(-c2cc(C(F)F)cn2-c2ccc(F)cc2)cc1 [Example 49, 1-(4-Fluorophenyl)-4-difluoromethyl-2-(4-methylsulfonylphenyl)pyrrole] | 40.9 |  |  | 
CCOc1ccc(-c2cc(C)cn2-c2ccc(S(N)(=O)=O)cc2)cc1 [Example 67, 2-(4-Ethoxyphenyl)-4-methyl-1-(4-sulfamoylphenyl) pyrrole] |  | 100 | 64 | ID50 [4]: 1.6 mg/kg; Inhibition Rate (%) (yeast-induced fever): 78%; UD50 (gastric mucosa): >100 mg/kg
CSc1ccc(-n2cc(C)cc2-c2ccc(S(N)(=O)=O)cc2)cc1 [Example 84, 4-Methyl-1-(4-methylthiophenyl)-2-(4-sulfamoylphenyl)pyrrole] |  | 100 | 66 | Inhibition Rate (%) (yeast-induced fever): 64%; UD50 (gastric mucosa): >100 mg/kg
CS(=O)(=O)c1ccc(-c2ccc(F)n2-c2ccc(F)cc2)cc1 [Example 41, 5-Fluoro-1-(4-fluorophenyl)-2-(4-methylsulfonylphenyl)pyrrole] |  |  | 60 | inhibition at 10 µM [5]: 51.2%
CS(=O)(=O)c1ccc(-c2cccn2-c2ccc(F)cc2F)cc1 [Example 7, 1-(2,4-Difluorophenyl)-2-(4-methylsulfonylphenyl) pyrrole] |  | 100 | 56 | inhibition at 10 µM [5]: 42.6%
CCCOc1ccc(-c2cc(C)cn2-c2ccc(S(N)(=O)=O)cc2)cc1 [Example 68, 4-Methyl-2-(4-propoxyphenyl)-1-(4-sulfamoylphenyl)pyrrole] | 42.6 |  |  | 
CS(=O)(=O)c1ccc(-c2ccc(C(F)(F)F)n2-c2ccc(F)cc2)cc1 [Example 44, 5-Trifluoromethyl-1-(4-fluorophenyl)-2-(4-methylsulfonylphenyl)pyrrole] |  |  |  | melting point: 136 to 139 °C
Cc1cc(-c2ccc(C)c(C)c2)n(-c2ccc(S(N)(=O)=O)cc2)c1 [Example 78, 4-Methyl-2-(3,4-dimethylphenyl)-1-(4-sulfamoylphenyl)pyrrole] |  | 100 | 66 | UD50 (gastric mucosa): >100 mg/kg; IC50 [6]: 310 nM
COc1ccc(-c2cc(Cc3ccc(OC)c(OC4CCCC4)c3)cn2-c2ccc(S(N)(=O)=O)cc2)cc1 [Example 81, 4-(3-Cyclopentyloxy-4-methoxybenzyl)-2-(4-methoxyphenyl)-1-(4-sulfamoylphenyl)pyrrole] | 46.1 |  |  | 
CSc1ccc(-n2c(C)ccc2-c2ccc(S(N)(=O)=O)cc2)cc1 [Example 90, 5-Methyl-1-(4-methylthiophenyl)-2-(4-sulfamoylphenyl)pyrrole] |  |  | 64 | inhibition at 10 µM [5]: 62.2%
COc1ccc(-n2cccc2-c2ccc(S(C)(=O)=O)cc2)cc1F [Example 54, 1-(3-Fluoro-4-methoxyphenyl)-2-(4-methylsulfonylphenyl)pyrrole] | 54.7 |  |  | 
